Experimental data: PubChem BioAssay (NCI)
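Interpolation was linear, between the two tested concentrations surrounding the appropriate level; five concentrations were tested over 48 hours in 96-well plates. Here, GI50 denotes the concentration required for 50% inhibition of growth. At the TGI there is no net growth.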

Tests used:
Test in all cases: growth of human tumour cells (NCI), 48 h
HS 578T breast = system: HS 578T breast
SF-539 CNS = system: SF-539 CNS
UACC-257 melanoma = system: UACC-257 melanoma
PC-3 prostate = system: PC-3 prostate
SN12C renal = system: SN12C renal
SF-268 CNS = system: SF-268 CNS
M14 melanoma = system: M14 melanoma
RXF 393 renal = system: RXF 393 renal
TK-10 renal = system: TK-10 renal
SK-MEL-2 melanoma = system: SK-MEL-2 melanoma
786-0 renal = system: 786-0 renal
NCI-H460 lung = system: NCI-H460 lung
CCRF-CEM leukemia = system: CCRF-CEM leukemia
OVCAR-3 ovarian = system: OVCAR-3 ovarian
KM12 colon = system: KM12 colon
UACC-62 melanoma = system: UACC-62 melanoma
HCT-116 colon = system: HCT-116 colon
RPMI-8226 leukemia = system: RPMI-8226 leukemia
MCF7 breast = system: MCF7 breast

SMILES	TGI (HS 578T breast) [µM]	TGI (SF-539 CNS) [µM]	TGI (UACC-257 melanoma) [µM]	TGI (PC-3 prostate) [µM]	TGI (SN12C renal) [µM]	TGI (SF-268 CNS) [µM]	TGI (M14 melanoma) [µM]	TGI (RXF 393 renal) [µM]	TGI (TK-10 renal) [µM]	TGI (SK-MEL-2 melanoma) [µM]	TGI (786-0 renal) [µM]	TGI (NCI-H460 lung) [µM]	TGI (CCRF-CEM leukemia) [µM]	TGI (OVCAR-3 ovarian) [µM]	TGI (KM12 colon) [µM]	TGI (UACC-62 melanoma) [µM]	TGI (HCT-116 colon) [µM]	TGI (RPMI-8226 leukemia) [µM]	TGI (MCF7 breast) [µM]	GI50 (CCRF-CEM leukemia) [µM]
Cn1c(=O)c2sc3c4sc5c(=O)n(C)c6ccccc6c5c4sc3c2c2ccccc21	> 100	> 100	> 100	> 100	> 100	> 100	> 100	97.6	> 100	> 100	> 100	> 100	> 100	> 100	> 100	> 100	> 100	> 100	> 100	
COC(=O)CN(CC(O)C(NC(C)=O)C(O)C=O)C(=O)OCc1ccccc1 (stereo unspecified)	> 100	> 100	> 100	> 100	> 100	> 100	> 100	> 100	> 100	> 100	> 100	> 100	> 100	> 100	> 100	> 100	> 100	> 100	> 100	
Cc1ccc(/C=C2/N=C(N/N=C\C(O)C(O)C(O)CO)NC2=O)cc1 (stereo unspecified)	> 100	> 100	> 100	> 100	> 100	> 100	> 100	> 100	> 100	> 100	> 100	> 100	> 100	> 100	> 100		> 100	> 100	> 100	51.5
C=C(Cl)/C(=C\Cl)CCC(Cl)C(C)C (stereo unspecified)	> 100	> 100	> 100	> 100	> 100	> 100	> 100	> 100	> 100	> 100	> 100	> 100	> 100	> 100	> 100	> 100	> 100	> 100	> 100	
COc1ccc(C2C(C#N)=C(S)N(C3OC(COC(C)=O)C(OC(C)=O)C(OC(C)=O)C3OC(C)=O)C(C)=C2C(C)=O)cc1 (stereo unspecified)	> 100	> 100	> 100	> 100	> 100	> 100	> 100	> 100	> 100	> 100	> 100	> 100	> 100	> 100	> 100	> 100	> 100	> 100	> 100	
O=C1C[C@H](COCc2ccccc2)NC(=O)C[C@H](COCc2ccccc2)NC(=O)C[C@H](COCc2ccccc2)N1	> 100	75.1	> 100	> 100	> 100	> 100	> 100	27.1	41.1	> 100	> 100	> 100	> 100	> 100	> 100	> 100	> 100	> 100	> 100	
CC(C)(C)c1cc2c(c(C(C)(C)C)c1O)CC(=O)O2	97.3	62.5	75.7	76.1	> 100	> 100	62.5	54.5	> 100	47.7	94.1	> 100	73.5	50.7	64.6	77.5	> 100	65	> 100	
COc1ccc(/C=C2\C[C@H]3[C@@H]4CC=C5C[C@@H](OC(C)=O)CC[C@]5(C)[C@H]4CC[C@]3(C)\C2=N\O)cc1OC	> 100	> 100	> 100	> 100	> 100	> 100	> 100	> 100		> 100	> 100	> 100	> 100	> 100	> 100	> 100	> 100	88.2	> 100	
CC(C)(C)OC(=O)N1CC(CCl)c2ccc(O)cc21 (stereo unspecified)	7.41	4.96	5.01	5.51	11.5	4.26	3.21	2.85	7.47	3.2	12.3	10.2	9.61	5.83	4.6	4.56	12.1	7.96	5.02	
O/N=C1\CC2(N3CCOCC3)CCC1(c1ccccc1)CC2	> 100	> 100	> 100	> 100	> 100	> 100	> 100	> 100	> 100	> 100	> 100	> 100	> 100	> 100	> 100	> 100	> 100	> 100	> 100	
O=[N+]([O-])c1ccc(-n2nc3ccc4c(no[n+]4[O-])c3[n+]2[O-])c([N+](=O)[O-])c1	8.6	12.7	3.65	20.7	7.03	13.8	3.29	5.37	6.88	9.92	7.97	40.6	3.68	6.39	13.1	7.72	3.74	6.8	3.98	
CNCCN[C@@H]1c2cc3c(cc2[C@@H](c2cc(OC)c(O)c(OC)c2)[C@H]2C(=O)OC[C@@H]21)OCO3	1.34	0.167	7.61	> 41	0.793	> 25.6	4.68	0.747	8.21	1.79	0.487		0.117	4.17	4.47	0.831	5.27	0.634	> 53.3	
